According to patent publication US20250214969A1, “PROTEIN DEGRADERS AND USES THEREOF” (Kymera Therapeutics, Inc., priority 2022, published 2025):

Legend:
[1] = molecular target: T1, truncated His-MBP-Tev-KLHDC2 (residues 1-363) (Homo sapiens, UniProt Q9Y2U9); test: KLHDC2 HTRF binding assay; settings: 1 nM KLHDC2 (residues 1-363), fluorescein-labeled diglycine peptide probe
T1 construct: truncated His -MBP-Tev-KLHDC2 (residues 1-363) purified from E. coli; made in house; host or cells: E. coli
T1 sequence (Q9Y2U9 1-363): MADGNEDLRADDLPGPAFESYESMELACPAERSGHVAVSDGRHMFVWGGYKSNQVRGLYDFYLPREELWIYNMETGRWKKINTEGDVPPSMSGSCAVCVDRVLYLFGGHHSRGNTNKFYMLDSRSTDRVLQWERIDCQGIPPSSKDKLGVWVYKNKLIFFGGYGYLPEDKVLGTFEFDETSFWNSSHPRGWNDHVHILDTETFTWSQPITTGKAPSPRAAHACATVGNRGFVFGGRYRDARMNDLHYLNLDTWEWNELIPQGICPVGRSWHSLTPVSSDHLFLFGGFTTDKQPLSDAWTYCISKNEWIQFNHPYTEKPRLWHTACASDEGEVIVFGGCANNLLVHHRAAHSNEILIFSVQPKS

[2] = molecular target: T1, truncated His-MBP-Tev-KLHDC2 (residues 1-363); test: KLHDC2 FP competition binding assay; settings: 15 nM KLHDC2 (residues 1-363), 10 nM fluorescein-labeled diglycine peptide probe, read-out: KLHDC2 binding Human FP: average external IC50

IC50 [1]	IC50 [2]	Structure (SMILES)
> 5 µM	> 5 µM	O=C(O)Cn1cc(-c2cncc(CCc3ccccc3)c2)ccc1=O [I-285]
> 5 µM	> 5 µM	O=C(O)Cn1cc(NC(=O)[C@H]2CCCN(c3cccnc3)C2)c(C2CC2)cc1=O [I-57]
> 5 µM	> 5 µM	O=C(O)Cn1cc(NC(=O)c2cccc(-c3ccccn3)c2)ccc1=O [I-209]
> 5 µM	> 5 µM	O=C(O)Cn1cc(NS(=O)(=O)c2ccccc2)ccc1=O [I-317]
> 5 µM	> 5 µM	COc1ccc(/C=C/CC(=O)Nc2ccc(=O)n(CC(=O)O)c2)cc1 [I-210]
> 5 µM	> 5 µM	O=C(O)Cn1cc(-c2cccc(C(F)(F)F)c2)ccc1=O [I-381]
0.5 to 5 µM	0.5 to 5 µM	COc1cc(-c2ccccn2)ccc1C(=O)Nc1ccc(=O)n(CC(=O)O)c1 [I-149]
> 5 µM	> 5 µM	O=C(O)Cn1cc(NC(=O)Cc2ccccc2)ccc1=O [I-377]
< 0.05 µM	0.5 to 5 µM	COc1cncc(-c2cccc(C(=O)Nc3ccc(=O)n(CC(=O)O)c3)c2)c1 [I-47]
0.5 to 5 µM	> 5 µM	O=C(O)Cn1cc(NC(=O)c2cccc(-c3cccc(Cl)c3)c2)ccc1=O [I-293]
0.05 to 0.5 µM	0.5 to 5 µM	O=C(O)Cn1cc(N2CCc3ccc(-c4cccnc4)cc3C2=O)ccc1=O [I-89]
> 5 µM	> 5 µM	O=C(O)Cn1cc(NC(=O)c2cccc(-c3ccccc3)n2)ccc1=O [I-274]
> 5 µM	> 5 µM	CNC(=O)c1cccc(-c2cccc(C(=O)Nc3ccc(=O)n(CC(=O)O)c3)c2)c1 [I-195]
0.5 to 5 µM	0.5 to 5 µM	O=C(O)Cn1cc(NC(=O)c2nccc(-c3cccnc3)n2)ccc1=O [I-85]
> 5 µM	> 5 µM	CS(=O)(=O)c1ccc(-c2cccc(C(=O)Nc3ccc(=O)n(CC(=O)O)c3)c2)cc1 [I-192]
> 5 µM	> 5 µM	Cc1nn(-c2ccc(F)cc2F)c(C)c1CC(=O)Nc1ccc(=O)n(CC(=O)O)c1 [I-246]
> 5 µM	> 5 µM	O=C(O)Cn1cc(-c2ccc(F)cc2F)ccc1=O [I-370]
> 5 µM	> 5 µM	O=C(O)CCN1C(=O)CCc2ccccc21 [I-229]
0.5 to 5 µM	> 5 µM	COc1c(C(=O)Nc2ccc(=O)n(CC(=O)O)c2)cccc1-c1ccccc1 [I-259]
> 5 µM	> 5 µM	COc1cncc(-c2cccc(C(=O)Nc3ccc4c(c3)CC(=O)O4)c2)c1 [I-13]
> 5 µM	> 5 µM	CCOC(=O)Cn1cc(NC(=O)c2cccc(-c3cnccc3CCCCCCN)c2)ccc1=O [I-152]
> 5 µM	> 5 µM	O=C(O)Cn1c(=O)oc2cc([N+](=O)[O-])ccc21 [I-214]
> 5 µM	> 5 µM	Nc1ccc(-c2ccc(=O)n(CC(=O)O)c2)cn1 [I-367]
> 5 µM	> 5 µM	O=C(O)CN1C(=O)Cc2ccccc21 [I-224]
> 5 µM	> 5 µM	Cc1onc(-c2ccc(F)cc2)c1C(=O)Nc1ccc(=O)n(CC(=O)O)c1 [I-254]
> 5 µM	> 5 µM	CCc1ccc(C)c(-c2ccc(=O)n(CC(=O)O)c2)c1 [I-340]
> 5 µM	> 5 µM	O=C(O)Cn1cc(N2CCC3(CCN(c4cccnc4)CC3)C2=O)ccc1=O [I-38]
> 5 µM	> 5 µM	O=C(O)C1CC(=O)N(Cc2ccc(Cl)cc2)C1 (stereo not shown) [I-221]

IC50 [1]	IC50 [2]	Structure (SMILES)
> 5 µM	> 5 µM	Cc1ccc(C)c(-c2cn(CC(=O)O)c(=O)cc2C)c1 [I-330]
> 5 µM	> 5 µM	Cc1cc(=O)n(CC(=O)O)cc1NC(=O)c1ccccc1 [I-316]
> 5 µM	> 5 µM	O=C(O)Cn1cc(-c2cc(F)c(O)c(F)c2)ccc1=O [I-389]
0.05 to 0.5 µM	0.5 to 5 µM	NCCCCCCc1cncc(-c2cccc(C(=O)Nc3ccc(=O)n(CC(=O)O)c3)c2)c1 [I-167]
0.5 to 5 µM	0.05 to 0.5 µM	COc1cc(-c2ccc(CCCCCCCCCNC(=O)C[C@@H]3N=C(c4ccc(Cl)cc4)c4c(sc(C)c4C)-n4c(C)nnc43)cc2)ccc1C(=O)Nc1ccc(=O)n(CC(=O)O)c1 [I-470]
0.5 to 5 µM	> 5 µM	O=C(O)Cn1cc(NC(=O)c2cccc(-c3ccc(F)cc3)c2)ccc1=O [I-276]
> 5 µM	> 5 µM	CCOC(=O)Cn1cc(NC(=O)c2cccc(-c3cccnc3)c2)ccc1=O [I-98]
0.05 to 0.5 µM	0.5 to 5 µM	CC1CC(C(=O)Nc2ccc(=O)n(CC(=O)O)c2)CN(c2cccnc2)C1 (stereo not shown) [I-53]
> 5 µM	> 5 µM	O=C(O)Cn1cc(CC(=O)Nc2ccccc2)ccc1=O [I-306]
> 5 µM	> 5 µM	COc1ccc(-c2cc(C)ccc2C)cc1CC(=O)O [I-354]
0.5 to 5 µM	> 5 µM	O=C(O)Cn1cc(NC(=O)[C@H]2CCN(c3cccnc3)C2)ccc1=O [I-48]
> 5 µM	> 5 µM	O=C(O)Cn1cc(NC(=O)COc2ccc(F)cc2)ccc1=O [I-283]
> 5 µM	> 5 µM	O=C(O)CC1CN(C(=O)c2cccc(-c3cccnc3)c2)CCO1 (stereo not shown) [I-90]
> 5 µM	> 5 µM	O=C(O)Cn1cc(NC(=O)c2cccc(-c3cccc(C(F)(F)F)c3)c2)ccc1=O [I-200, 2-(2-oxo-5-(3′-(trifluoromethyl)-[1,1′-biphenyl]-3-carboxamido)pyridin-1 (2H)-yl) acetic acid]
0.05 to 0.5 µM	0.5 to 5 µM	CC(C)(C)OC(=O)NCCCCCCn1ccc2c(C(=O)Nc3ccc(=O)n(CC(=O)O)c3)cccc21 [I-160]
0.5 to 5 µM	> 5 µM	Cc1cc(C(=O)Nc2ccc(=O)n(CC(=O)O)c2)sc1-c1ccccc1 [I-297]
> 5 µM	> 5 µM	CC(C)Cc1cccc(-c2ccc(=O)n(CC(=O)O)c2)c1 [I-344]
> 5 µM	> 5 µM	O=C(O)Cn1cc(C(F)(F)F)ccc1=O [I-429]
> 5 µM	> 5 µM	CCCOc1nc2ccccc2cc1C(=O)Nc1ccc(=O)n(CC(=O)O)c1 [I-188]
> 5 µM	> 5 µM	CS(=O)(=O)Nc1cccc(CC(=O)O)c1 [I-227]
0.5 to 5 µM	> 5 µM	C[C@H](C(=O)O)n1cc(NC(=O)c2cccc(-c3cccnc3)c2)ccc1=O [I-72]
< 0.05 µM	0.05 to 0.5 µM	COc1cccc2c(N3CCC[C@H](C(=O)Nc4ccc(F)c(CC(=O)O)c4)C3)cncc12 [I-6]
> 5 µM	> 5 µM	O=C(O)Cn1cc(NC(=O)COc2ccccc2F)ccc1=O [I-279]
0.5 to 5 µM	> 5 µM	CCc1ccc(C(=O)Nc2ccc(=O)n(CC(=O)O)c2)cc1-c1cccnc1 [I-181]
0.05 to 0.5 µM	0.5 to 5 µM	N#Cc1cc(=O)n(CC(=O)O)cc1NC(=O)[C@H]1CCCN(c2cccnc2)C1 [I-26]
0.05 to 0.5 µM	0.5 to 5 µM	O=C(O)Cn1cc(NC(=O)c2cccc(-c3cccnc3)c2)c(Cl)cc1=O [I-97]
0.5 to 5 µM	> 5 µM	O=C(O)Cn1cc(NC(=O)c2ccc(-c3ccccc3)c(Cl)c2)ccc1=O [I-185]

Structure (SMILES)	IC50 [1]	IC50 [2]
Cc1sc2c(c1C)C(c1ccc(Cl)cc1)=N[C@@H](CC(=O)NCCCCCCc1ccc(C(=O)Nc3ccc(=O)n(CC(=O)O)c3)cc1-c1cccnc1)c1nnc(C)n1-2 [I-473]	0.05 to 0.5 µM	< 0.05 µM
